pEC50, pKi: −log10 of the molar value.
What was measured:
[1] = test system: HIV-1 laboratory viral strain NL4.3 (wild type virus); assay: Anti-viral assay in vitro (MTT, infected MT-4 cells); format: cell-based; details: Human immunodeficiency virus 1, MT4, 144 h; MT-4 cells infected with NL4.3, six days, MTT assay; read-out: EC50
Protocol: Anti-viral and Cytotoxicity Assays In Vitro
To evaluate the EC50 of our compounds, various drug concentrations are incubated with the infected cell for six days and then the metabolic activity of the cells is monitored by the MTT assay. (See A. J. Japour et al, Antimicrobial Agents and Chemotherapy, 37, 1095-1101, 1993 and R. Pauwels et al. Journal of Virological Methods, 20, 309-321, 1988)
We use the laboratory viral strain NL4.3 as wild type virus and the cell line used is MT-4 which is a T-cell line highly sensitive to HIV-1. We also use some WT clinical strains. To address the resistance issue we assay the inhibitors with NL4.3 mutants which are designed to be resistant to specific commercially,available inhibitors

HIV protease = HIV protease (Human immunodeficiency virus type 1 group M subtype B, UniProt P04585); assay: biochemical
Excerpt: Enzymatic Assay for Determining the Inhibition Constant (Ki) of Synthetic Compounds Targeting the HIV Protease
This is a fluorometric assay based on the cleavage by protease of a substrate carrying a donor group (EDANS) and an acceptor group (DABCYL) on each side of the cleavage site, interacting together through fluorescence resonance energy transfer (FRET) as described by Matayoshi et al. (Science 247:954-954, 1990).
After calculation of Vo and Vi, the inhibition constant (Ki) of the compound is determined using the equation of Henderson: [formula]
where Vo=the enzyme's initial velocity
Vi=the enzyme velocity in the presence of the inhibitory compound,
[I]=inhibitor concentration, [S]=substrate concentration,
Km=Michaelis-Menten constant and Kiapp=apparent Ki
Graphs are traced and the Ki determined using GraphPad Prism software v.

Row | Compound | pEC50 [1] | pKi (HIV protease)
1 | COC(=O)N[C@@H](Cc1ccc2ccccc2c1)C(=O)NCCC[C@@H](CO)N(CC(C)C)S(=O)(=O)c1ccc(N)cc1 [Example 1, (1S,4S)-(1-{4-[(4-Amino-benzenesulfonyl)-isobutyl-amino]-5-hydroxy-pentylcarbamoyl}-2-naphthalen-2-yl-ethyl)-carbamic Acid Methyl Ester] | 5.83 | 8.14
2 | COC(=O)N[C@@H](Cc1cccc2ccccc12)C(=O)NCCC[C@@H](CO)N(CC(C)C)S(=O)(=O)c1ccc(N)cc1 [Example 2, (1S,4S)-(1-{4-[(4-Amino-benzenesulfonyl)-isobutyl-amino]-5-hydroxy-pentylcarbamoyl}-2-naphthalen-1-yl-ethyl)-carbamic Acid Methyl Ester] | 6.17 | 8.55
3 | COC(=O)NC(Cc1ccccc1-c1ccccc1)C(=O)NCCCC(CO)N(CC(C)C)S(=O)(=O)c1ccc(N)cc1 [Example 3, (1R,S,4S)-(1-{4-[(4-Amino-benzenesulfonyl)-isobutyl-amino]-5-hydroxy-pentylcarbamoyl}-2-biphenyl-2-yl-ethyl)-carbamic Acid Methyl Ester] | 7.19 | 8.62
4 | CC(C)CN([C@H](CO)CCCNC(=O)[C@H](Cc1cccc2ccccc12)NC(=O)N1CCOCC1)S(=O)(=O)c1ccc(N)cc1 [Example 4, (1S,4S)-Morpholine-4-carboxylic Acid (1-{4-[(4-Amino-benzenesulfonyl)-isobutyl-amino]-5-hydroxy-pentylcarbamoyl}-2-naphthalen-1-yl-ethyl)-amide] | 6.14 | 8.85
5 | CC(C)CN([C@H](CO)CCCNC(=O)[C@@H](NC(=O)N1CCOCC1)C(c1ccccc1)c1ccccc1)S(=O)(=O)c1ccc(N)cc1 [Example 9, (1S,4S)-Morpholine-4-carboxylic Acid (1-{4-[(4-Amino-benzenesulfonyl)-isobutyl-amino]-5-hydroxy-pentylcarbamoyl}-2,2-diphenyl-ethyl)-amide] | 5.89 | 8.38
6 | COC(=O)N[C@H](C(=O)NCCC[C@@H](CO)N(CC(C)C)S(=O)(=O)c1ccc(N)cc1)C(c1ccccc1)c1ccccc1 [Example 10, (1S,4S)-(1-{4-[(4-Amino-benzenesulfonyl)-isobutyl-amino]-5-hydroxy-pentylcarbamoyl}-2,2-diphenyl-ethyl)-carbamic Acid Methyl Ester] | 6.29 | 8.30
7 | COC(=O)C(=O)N[C@@H](Cc1cccc2ccccc12)C(=O)NCCC[C@@H](CO)N(CC(C)C)S(=O)(=O)c1ccc(N)cc1 [Example 11, (1S,4S)-N-(1-{4-[(4-Amino-benzenesulfonyl)-isobutyl-amino]-5-hydroxy-pentylcarbamoyl}-2-naphthalen-1-yl-ethyl)-oxalamic Acid Methyl Ester] | 4.19 | 8.30
8 | CC(C)CN([C@H](CO)CCCNC(=O)[C@H](Cc1cccc2ccccc12)NC(=O)CC(F)(F)F)S(=O)(=O)c1ccc(N)cc1 [Example 12, (1S,4S)-N-(1-{4-[(4-Amino-benzenesulfonyl)-isobutyl-amino]-5-hydroxy-pentylcarbamoyl}-2-naphthalen-1-yl-ethyl)-3,3,3-trifluoro-propionamide] | 6.13 | –
9 | COC(=O)N[C@@H](Cc1ccccc1-c1ccc(OC)cc1)C(=O)NCCCC[C@@H](CO)N(CC(C)C)S(=O)(=O)c1ccc(N)cc1 [Example 31, (1S,5S)-[1-{5-[(4-Amino-benzenesulfonyl)-isobutyl-amino]-6-hydroxy-hexylcarbamoyl}-2-(4′-methoxy-biphenyl-2-yl)-ethyl]-carbamic Acid Methyl Ester] | 6.93 | 9.18
10 | CC(C)CN([C@H](CO)CCCCNC(=O)[C@H](Cc1cccc2ccccc12)NC(=O)N1CCOCC1)S(=O)(=O)c1ccc(N)cc1 [Example 32, (1S,5S)-Morpholine-4-carboxylic Acid (1-{5-[(4-Amino-benzenesulfonyl)-isobutyl-amino]-6-hydroxy-hexylcarbamoyl}-2-naphthalen-1-yl-ethyl)-amide] | 7.52 | 9.11
11 | CC(C)CN([C@H](CO)CCCCNC(=O)[C@H](Cc1ccc2ccccc2c1)NC(=O)CC(F)(F)F)S(=O)(=O)c1ccc(N)cc1 [Example 61, (1S,5S)-N-(1-{5-[(4-Amino-benzenesulfonyl)-isobutyl-amino]-6-hydroxy-hexylcarbamoyl}-2-naphthalen-2-yl-ethyl)-3,3,3-trifluoro-propionamide] | 6.79 | –
12 | COC(=O)N[C@H](C(=O)NCCCC[C@@H](CO)N(CC(C)C)S(=O)(=O)c1ccc2c(c1)OCO2)C(c1ccccc1)c1ccccc1 [Example 67, (1S,5S)-(1-{5-[(Benzo[1,3]dioxole-5-sulfonyl)-isobutyl-amino]-6-hydroxy-hexylcarbamoyl}-2,2-diphenyl-ethyl)-carbamic Acid Methyl Ester] | 6.84 | –
13 | CC(C)CN([C@H](CO)CCCCNC(=O)[C@@H](NC(=O)c1cccc(O)c1)C(c1ccccc1)c1ccccc1)S(=O)(=O)c1ccc(N)cc1 [Example 105, (1S,5S)-N-(1-{5-[(4-Amino-benzenesulfonyl)-isobutyl-amino]-6-hydroxy-hexylcarbamoyl}-2,2-diphenyl-ethyl)-3-hydroxy-benzamide] | – | > 8.42
14 | COc1cc(C(=O)N[C@H](C(=O)NCCCC[C@@H](CO)N(CC(C)C)S(=O)(=O)c2ccc(N)cc2)C(c2ccccc2)c2ccccc2)ccc1O [Example 106, (1S,5S)-N-(1-{5-[(4-Amino-benzenesulfonyl)-isobutyl-amino]-6-hydroxy-hexylcarbamoyl}-2,2-diphenyl-ethyl)-4-hydroxy-3-methoxy-benzamide] | – | > 8.42
15 | CC(C)CN([C@H](CO)CCCCNC(=O)[C@@H](NC(=O)c1ccc([N+](=O)[O-])c(O)c1)C(c1ccccc1)c1ccccc1)S(=O)(=O)c1ccc(N)cc1 [Example 107, (1S,5S)-N-(1-{5-[(4-Amino-benzenesulfonyl)-isobutyl-amino]-6-hydroxy-hexylcarbamoyl}-2,2-diphenyl-ethyl)-3-hydroxy-4-nitro-benzamide] | – | > 8.42
16 | CC(C)CN([C@H](CO)CCCCNC(=O)[C@@H](NC(=O)c1ncccc1O)C(c1ccccc1)c1ccccc1)S(=O)(=O)c1ccc(N)cc1 [Example 108, (1S,5S)-3-Hydroxy-pyridine-2-carboxylic Acid-N-(1-{5-[(4-amino-benzenesulfonyl)-isobutyl-amino]-6-hydroxy-hexylcarbamoyl}-2,2-diphenyl-ethyl)-amide] | – | > 8.42
17 | CC(C)CN([C@H](CO)CCCCNC(=O)[C@@H](NC(=O)c1ccc(N)nc1)C(c1ccccc1)c1ccccc1)S(=O)(=O)c1ccc(N)cc1 [Example 109, (1S,5S)-6-Amino-N-(1-{5-[(4-amino-benzenesulfonyl)-isobutyl-amino]-6-hydroxy-hexylcarbamoyl}-2,2-diphenyl-ethyl)-nicotinamide] | – | > 8.42
18 | CC(C)CN([C@H](CO)CCCCNC(=O)[C@@H](NC(=O)c1ccc(O)nc1)C(c1ccccc1)c1ccccc1)S(=O)(=O)c1ccc(N)cc1 [Example 110, (1S,5S)-N-(1-{5-[(4-Amino-benzenesulfonyl)-isobutyl-amino]-6-hydroxy-hexylcarbamoyl}-2,2-diphenyl-ethyl)-6-hydroxy-nicotinamide] | – | > 8.42
19 | Cc1ncccc1C(=O)N[C@H](C(=O)NCCCC[C@@H](CO)N(CC(C)C)S(=O)(=O)c1ccc(N)cc1)C(c1ccccc1)c1ccccc1 [Example 111, (1S,5S)-N-(1-{5-[(4-Amino-benzenesulfonyl)-isobutyl-amino]-6-hydroxy-hexylcarbamoyl}-2,2-diphenyl-ethyl)-2-methyl-nicotinamide] | – | > 8.42
20 | Cc1ccc(C(=O)N[C@H](C(=O)NCCCC[C@@H](CO)N(CC(C)C)S(=O)(=O)c2ccc(N)cc2)C(c2ccccc2)c2ccccc2)cn1 [Example 112, (1S,5S)-N-(1-{5-[(4-Amino-benzenesulfonyl)-isobutyl-amino]-6-hydroxy-hexylcarbamoyl}-2,2-diphenyl-ethyl)-6-methyl-nicotinamide] | – | > 8.42
21 | CC(C)CN([C@H](CO)CCCCNC(=O)[C@@H](N)Cc1ccc2ccccc2c1)S(=O)(=O)c1ccc(N)c(F)c1 [Example 113, (2S,5S)-2-Amino-N-{5-[(4-amino-3-fluoro-benzenesulfonyl)-isobutyl-amino]-6-hydroxy-hexyl}-3-naphthalen-2-yl-propionamide] | – | > 8.42
22 | CC(C)CN([C@H](CO)CCCCNC(=O)[C@H](Cc1ccc2ccccc2c1)NC(=O)c1cnc[nH]1)S(=O)(=O)c1ccc(F)c(N)c1 [Example 114, (1S,5S)-3H-Imidazole-4-carboxylic Acid (1-{5-[(3-Amino-4-fluoro-benzenesulfonyl)-isobutyl-amino]-6-hydroxy-hexylcarbamoyl}-2-naphthalen-2-yl-ethyl)-amide] | – | > 8.42
23 | CC(C)CN([C@H](CO)CCCCNC(=O)[C@H](Cc1ccc2ccccc2c1)NC(=O)N1CCCC1)S(=O)(=O)c1ccc(F)c(N)c1 [Example 115, (1S,5S)Pyrrolidine-1-carboxylic Acid (1-{5-[(3-Amino-4-fluoro-benzenesulfonyl)-isobutyl-amino]-6-hydroxy-hexylcarbamoyl}-2-naphthalen-2-yl-ethyl)-amide] | – | > 8.42
24 | COC(=O)N[C@@H](Cc1ccc2ccccc2c1)C(=O)NCCCC[C@@H](CO)N(CC(C)C)S(=O)(=O)c1ccc(N)c(F)c1 [Example 116, (1S,5S) (1-{5-[(4-Amino-3-fluoro-benzenesulfonyl)-isobutyl-amino]-6-hydroxy-hexylcarbamoyl}-2-naphthalen-2-yl-ethyl)-carbamic Acid Methyl Ester] | – | > 8.42

From patent US6632816B1, “Aromatic derivatives as HIV aspartyl protease inhibitors” (Pharmacor Inc., priority 2002, dated 2003)
